Literature values in US8569328B1, “Compositions and methods comprising tilidine or related compounds and dextromethorphan” (Antecip Bioventures II LLC, priority 2011, dated 2013).

Experiments:
[1] = three large multicenter randomized studies; dextromethorphan added to morphine
[2] = biological target: cytochrome P450 isozyme CYP2D6 (Homo sapiens, UniProt P10635); details: in vitro
cytochrome P450 isozyme CYP2D6, sequence (P10635 whole entry): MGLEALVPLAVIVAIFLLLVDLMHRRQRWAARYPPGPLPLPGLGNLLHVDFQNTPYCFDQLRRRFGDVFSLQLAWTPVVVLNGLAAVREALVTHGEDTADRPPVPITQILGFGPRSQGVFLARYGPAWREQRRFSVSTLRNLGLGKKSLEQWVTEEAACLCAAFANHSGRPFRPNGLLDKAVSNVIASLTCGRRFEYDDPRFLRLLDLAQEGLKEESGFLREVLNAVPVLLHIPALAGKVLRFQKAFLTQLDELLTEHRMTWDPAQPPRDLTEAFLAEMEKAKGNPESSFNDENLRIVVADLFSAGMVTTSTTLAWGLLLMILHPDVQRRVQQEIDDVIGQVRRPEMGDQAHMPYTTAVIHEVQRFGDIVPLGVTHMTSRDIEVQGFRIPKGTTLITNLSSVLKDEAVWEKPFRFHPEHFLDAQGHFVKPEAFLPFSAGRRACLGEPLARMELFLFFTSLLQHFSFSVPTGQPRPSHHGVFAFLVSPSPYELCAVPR

| Molecule | benefit from the addition of dextromethorphan to morphine (enhancement of opioid analgesia) [1] | inhibition of cytochrome P450 isozymes including CYP2D6 [2] |
| --- | --- | --- |
| COc1ccc2c(c1)[C@]13CCCC[C@@H]1[C@H](C2)N(C)CC3 [dextromethorphan] | failed to show any benefit | – |
| CCOC(=O)C1(c2ccccc2)CCC=CC1N(C)C (stereo not drawn) [tilidine] | – | inhibit |
| nortilidine | – | inhibit |
